Experiments:
BIRC2 = biological target: T1, BIRC2 (Homo sapiens, UniProt Q13490); experiment: BIRC2 (cIAP1) degradation by Western blotting; format: cell-based
T1 construct: endogenous in cells; host or cells: 2D10, 293T and CD4+ T cells
Method: It was investigated whether Debio-1143 reverses HIV-1 latency by acting on the NF-κB pathway. Canonical and non-canonical NF-κB signaling pathways play an important role in the reactivation of latent HIV-1, implicating its regulation as an important therapeutic strategy for latency reversal.
Method: 2D10 (A) or 293T (B) and CD4+ T cells (C) cells were treated with DMSO, Debio-1143 (1 μM) and TNFα (10 ng/ml) for the indicated times and analyzed by Western blotting for BIRC2 and IkBα protein expression using antibodies specifically detecting human BIRC2, human IkBα, or human CypA, such as commercially available (e.g. from R&D Systems, Cell Signaling, Santa Cruz Biotechnology, or other sources).

[1] = test system: latent HIV in JLat 10.6-GFP, 2D10 and 5A8 cells; experiment: HIV reactivation using latent reporter cell lines (GFP expression by flow cytometry); format: cell-based, human
Source text: The experiment analyzed the ability of DEB10-1143 at reactivating latent HIV using three well-characterized latent T cell lines—JLat 10.6-GFP, 2D10 and 5A8 (Jordan A, Bisgrove D, Verdin E (2003) EMBO J 22(8): 1868-1877. doi: 10.1093/emboj/cdg188. PMID: 12682019; Sakane N, Kwon HS, Pagans S, Kaehlcke K, Mizusawa Y, Kamada M, et al. (2011) PLoS Pathog 7(8): e1002184. PMID: 21876670; Pearson R, Kim Y K, Hokello J, Lassen K, Friedman J, Tyagi M, et al. (2008) J Virol 82(24): 12291-12303. PMID: 18829756). These cell lines contain part of the HIV genome and the GFP reporter gene and are unable to produce infective HIV particles. Drug titration and kinetic studies were conducted. Debio-1143 was tested alone or in combination with the current antiretroviral therapy (ART), consisting of 20 μM tenofovir disoproxil fumarate [TDF], 10 μM emtricitabine [FTC] and 1 μM raltegravir [RAL]. ART and DEB10-1143 were added simultaneously to cells.
Method: Cells (100,000 cells/100 μL) were treated in triplicate for 0 and 72 h with increasing concentrations of DEB10-1143 (0 to 20.5 μM) used alone or in combination with ART (see above). ART and DEB10-1143 were added simultaneously to cells. Cells were analyzed for GFP expression by flow cytometry at the indicated time points counting all cells per replicate, and reported as % GFP+cells.

T1 sequence (Q13490 whole entry): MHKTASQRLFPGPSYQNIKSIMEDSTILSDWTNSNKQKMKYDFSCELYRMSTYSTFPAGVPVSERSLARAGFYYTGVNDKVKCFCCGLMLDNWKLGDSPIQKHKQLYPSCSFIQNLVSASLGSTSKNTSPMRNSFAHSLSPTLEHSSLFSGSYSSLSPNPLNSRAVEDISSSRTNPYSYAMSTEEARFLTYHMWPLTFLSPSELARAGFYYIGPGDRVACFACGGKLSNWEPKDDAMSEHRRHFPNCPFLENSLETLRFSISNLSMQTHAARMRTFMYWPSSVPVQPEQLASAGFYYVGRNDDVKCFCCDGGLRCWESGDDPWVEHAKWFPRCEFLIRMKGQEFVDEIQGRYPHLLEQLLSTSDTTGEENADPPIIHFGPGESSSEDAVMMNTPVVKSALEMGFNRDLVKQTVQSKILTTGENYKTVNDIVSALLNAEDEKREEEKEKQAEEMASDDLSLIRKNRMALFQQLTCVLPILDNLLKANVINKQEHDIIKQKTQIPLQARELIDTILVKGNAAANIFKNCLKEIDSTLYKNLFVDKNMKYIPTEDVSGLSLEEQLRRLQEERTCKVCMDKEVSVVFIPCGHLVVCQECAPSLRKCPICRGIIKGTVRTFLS

Q: Which results are given for `CN[C@@H](C)C(=O)N[C@H]1CN(C(=O)CC(C)C)CC[C@H]2CC[C@@H](C(=O)NC(c3ccccc3)c3ccccc3)N2C1=O` [Debio 1143, (5S,8S,10aR)-N-benzhydryl-5-((S)-2-(methylamino)propanamido)-3-(3-methylbutanoyl)-6-oxodecahydropyrrolo[1,2-a][1,5]diazocine-8-carboxamide]?
A: time of BIRC2 degradation (BIRC2; 1 μM, 2D10 and 293T cells): < 15 min; BIRC2 degradation (BIRC2; CD4+ T cells): dose-dependent; degree of HIV reactivation, comparison of cell lines ([1]; 2D10 cells compared to the two other cell lines): shows the best degree of HIV reactivation; influence of ART on the degree of latency reversal ([1]; in combination with ART (20 μM TDF, 10 μM FTC, 1 μM RAL), added simultaneously): does not influence; HIV reactivation (% GFP+ cells) ([1]; single agent, 0 to 20.5 μM, 72 h, JLat 10.6-GFP, 2D10 and 5A8 cells): possesses the capacity of activating latent HIV
